Measured values published in ChEMBL document CHEMBL1158462, “Recent advances in the development of polyamine analogues as antitumor agents” (J Med Chem, 2009).
One block for each compound: values may come before it.

Experiments:
NCI-H157 = test: Antitumor activity against human NCI-H157 cells by MTT assay; assay type: functional, cell-based
[1] = molecular target: T1, Histone deacetylase (Homo sapiens) (UniProt Q13547+O15379+Q9UBN7+Q92769+Q9UQL6+Q8WUI4+Q9BY41+Q96DB2+P56524+Q9UKV0+Q969S8); conditions: HeLa, at 5 µM
Description: Inhibition of HDAC from human HeLa cells assessed as of histone H3 acetylation at 5 uM

MCF7 = test: cells; assay type: functional, cell-based; conditions: Homo sapiens
Description: Antitumor activity against human MCF7 cells

MCF-10A = test: cells; assay type: functional, cell-based; conditions: Homo sapiens
Description: Antitumor activity against human MCF10A cells

[2] = molecular target: T1, Histone deacetylase (Homo sapiens); test: Inhibition of HDAC from human HeLa cells assessed as fold induction of alpha tubulin acetylation; assay type: cell-based
L1210 = test: Antitumor activity against mouse L1210 cells; assay type: functional, cell-based
[3] = Antitumor activity against human Hs 578T cells; assay type: functional, cell-based
ZR-75-1 = test: Antitumor activity against human ZR-75-1 cells; assay type: functional, cell-based
T47D = test: Antitumor activity against human T47D cells; assay type: functional, cell-based
MDA-MB-468 = test: Antitumor activity against human MDA-MB-468 cells; assay type: functional, cell-based
[4] = molecular target: Lysine-specific histone demethylase 1A (Homo sapiens) (UniProt O60341); conditions: 1 uM
Description: Inhibition of LSD1 at 1 uM

RKO [5] = test: Induction of SFRP5 expression in human RKO cells at 1 uM; assay type: functional
RKO [6] = test: Induction of H3K4me2 expression in human RKO cells at 1 uM; assay type: functional
RKO [7] = test: Induction of SFRP4 expression in human RKO cells at 1 uM; assay type: functional
HeLa = test: Antiproliferative activity against human HeLa cells; assay type: functional, cell-based
DuPro = test: Antitumor activity against human DuPro cells; assay type: functional, cell-based
PC-3 = test: cells; conditions: Homo sapiens
Description: Antitumor activity against human PC3 cells

Malme-3M = test: Antitumor activity against human MALME-3M cells; assay type: functional, cell-based
cells = conditions: Mus musculus, ML1
Description: Antitumor activity against mouse ML1 cells

DU-145 = test: Antitumor activity against human DU145 cells; assay type: functional, cell-based
[8] = Antitumor activity against human U251MG cells; assay type: functional, cell-based; conditions: U-251
HT-29 = test: Antitumor activity against human HT-29 cells; assay type: functional, cell-based
A549 [9] = test: Antitumor activity against human A549 cells; assay type: functional, cell-based
[10] = Antitumor activity against human H82 cells; assay type: functional, cell-based; conditions: NCI-H82
NCI-H69 = test: Antitumor activity against human H69 cells; assay type: functional, cell-based
A549 [11] = test: Antitumor activity against human A549 cells xenografted nu/nu Fox Chase mouse assessed as reduction in tumor growth at 75 mg/kg; assay type: functional; design: scale not given: the % may be the effect or the level left
A549 [12] = test: Antitumor activity against human A549 cells xenografted nu/nu Fox Chase mouse assessed as reduction in tumor growth at 125 mg/kg; assay type: functional; design: scale not given: the % may be the effect or the level left

- IC50 (NCI-H157): 300 nM
Structure (SMILES): CCNCCCNCCCNCCCNCCSc1ccccc1

- inhibition [1]: 30.2%
- IC50 (MCF7): > 30000 nM
Structure (SMILES): CC(=O)C(=O)NCCCCCC(=O)NCCCNCCCCNCCC(c1ccccc1)c1ccccc1
- IC50 (MCF-10A): > 30000 nM

- fold change (FC) [2]: 253
Structure (SMILES): CC(C)(C)c1ccc(CNCCCCNCCCNC(=O)CCCCCC(=O)NO)cc1

- IC50 (NCI-H157): 4000 nM
Structure (SMILES): COc1cc(C(C)(C)C)cc(C(C)(C)C)c1CNCCCNCCCNCCCNCc1c(OC)cc(C(C)(C)C)cc1C(C)(C)C

- IC50 (NCI-H157): 1400 nM
Structure (SMILES): CCSCCNCCCNCCCNCCCNCCSCC

- inhibition [1]: 42.9%
- IC50 (MCF7): > 30000 nM
Structure (SMILES): Nc1ccccc1NC(=O)c1ccc(CNC(=O)CCCCCCCCC(=O)NCCCNCCCCNCCC(c2ccccc2)c2ccccc2)cc1
- IC50 (MCF-10A): > 30000 nM

- IC50 (L1210): 500 nM
Structure (SMILES): CCNCCCNCCCCNCCCNCC [BIS(ETHYL)SPERMINE]

- IC50 [3]: 200 nM
- IC50 (NCI-H157): 200 nM
- IC50 (MCF7): 200 nM
- IC50 (ZR-75-1): 200 nM
- IC50 (T47D): 200 nM
- IC50 (MDA-MB-468): 200 nM
Structure (SMILES): CCNCCCNCCCNCCCNCC1CC1

- inhibition [4]: 90.9%
Structure (SMILES): N=C(NCCCNCCCCCCCNCCCNC(=N)NC(=N)NCCC(c1ccccc1)c1ccccc1)NC(=N)NCCC(c1ccccc1)c1ccccc1
- Activity (RKO [5]): 20%
- Activity (RKO [6]): 20%
- Activity (RKO [7]): 20%

- IC50 (HeLa): 5000 nM
Structure (SMILES): NCCCNCCCCCCCCNCCCN

- inhibition [1]: 48.4%
- IC50 (MCF7): > 30000 nM
Structure (SMILES): Nc1ccccc1NC(=O)c1ccc(CNC(=O)CCCCC(=O)NCCCNCCCCNCCC(c2ccccc2)c2ccccc2)cc1
- IC50 (MCF-10A): > 30000 nM

- IC50 (DuPro): 600 nM
- IC50 (PC-3): 600 nM
Structure (SMILES): CCCCCCCCCCCCCC1CC(=O)NCCCNCCCCNCCCN1 (stereo not drawn) [BUDMUNCHIAMINE L4]

- IC50 (NCI-H157): 3100 nM
Structure (SMILES): CCNCCCNCCCCNCCCNCC(CC)CC

- IC50 (NCI-H157): 2900 nM
Structure (SMILES): C(CCCNCCCNCC1CCCCCC1)CCCNCCCNCC1CCCCCC1

- IC50 (Malme-3M): 3000 nM
Structure (SMILES): CC(C)NCCCNCCCCNCCCNC(C)C

- inhibition [1]: 48.1%
- IC50 (MCF7): 900 nM
Structure (SMILES): Cc1ccc(CNCCCCNC(=O)CCCCCC(=O)NCc2ccc(C(=O)Nc3ccccc3N)cc2)cc1
- IC50 (MCF-10A): 24000 nM

- IC50 (cells): 750 nM
Structure (SMILES): Nc1ccccc1NC(=O)c1ccc(CNC(=O)OCc2cccnc2)cc1 [ENTINOSTAT]

- IC50 (NCI-H157): 4100 nM
Structure (SMILES): CC(C)c1ccc(CNCCCNCCCNCCCNCc2ccc(C(C)C)cc2)cc1

- IC50 (DuPro): 60 nM
- IC50 (DU-145): 60 nM
Structure (SMILES): CCNC[C@H]1C[C@@H]1CNCCCCNC[C@H]1C[C@@H]1CNCC

- IC50 [8]: 250 nM
- IC50 (DU-145): 250 nM
- IC50 (PC-3): 250 nM
- IC50 (MCF7): > 30000 nM
- IC50 (HT-29): 250 nM
- IC50 (A549 [9]): 250 nM
Structure (SMILES): CCNCCCCNC[C@@H]1C[C@H]1NCCCCNCC

- IC50 (NCI-H157): 2800 nM
Structure (SMILES): CC1(C)C2CCC(CNCCCNCCCNCCCNCC3CCC4CCC3C4(C)C)C1CC2 (stereo not drawn)

- IC50 [8]: ≥ 300 nM
- IC50 (DU-145): ≥ 300 nM
- IC50 (PC-3): ≥ 300 nM
- IC50 (MCF7): ≥ 300 nM
- IC50 (HT-29): ≥ 300 nM
- IC50 (A549 [9]): ≥ 300 nM
Structure (SMILES): CCNCCCNCC1CC1CNCCCNCC (stereo not drawn)

- IC50 (NCI-H157): 800 nM
Structure (SMILES): CCNCCCNCCCNCCCNCC(CC)CC

- IC50 (NCI-H157): 4100 nM
Structure (SMILES): c1ccc(-c2ccccc2CNCCCNCCCCNCCCNCc2ccccc2-c2ccccc2)cc1

- IC50 (DuPro): 120 nM
- IC50 (DU-145): 120 nM
Structure (SMILES): CCNCCCCNC[C@H]1C[C@@H]1CNCCCCNC[C@H]1C[C@@H]1CNCCCCNCC

- IC50 (MCF7): > 30000 nM
Structure (SMILES): Nc1ccccc1NC(=O)c1ccc(CNC(=O)CCCCCCC(=O)NCCCNCCCCNCCC(c2ccccc2)c2ccccc2)cc1
- IC50 (MCF-10A): > 30000 nM

- inhibition [1]: 72.6%
- IC50 (MCF7): > 30000 nM
Structure (SMILES): O=C(CCCCCCC(=O)NCc1ccc(C(=O)O)cc1)NCCCNCCCCNCC(c1ccccc1)c1ccccc1
- IC50 (MCF-10A): > 30000 nM

- inhibition [1]: 60.1%
- IC50 (MCF7): > 30000 nM
Structure (SMILES): Nc1ccccc1NC(=O)c1ccc(CNC(=O)CCCCC(=O)NCCCNCCCCNCc2ccccc2-c2ccccc2)cc1
- IC50 (MCF-10A): > 30000 nM

- IC50 [8]: 250 nM
- IC50 (DU-145): 250 nM
- IC50 (PC-3): 250 nM
- IC50 (MCF7): 9250 nM
- IC50 (HT-29): 250 nM
- IC50 (A549 [9]): 250 nM
Structure (SMILES): CCNCCCNC/C=C\CNCCCNCC

- IC50 (NCI-H157): 600 nM
Structure (SMILES): CCNCCCNCCCNCCCNCCC(C)C

- IC50 [10]: 1300 nM
- IC50 (NCI-H157): 1300 nM
Structure (SMILES): CCNCCCNCCCNCCCNC[C@@H](C)CC

- IC50 [10]: 700 nM
- IC50 (NCI-H69): 700 nM
- IC50 (NCI-H157): 2200 nM
- IC50 (A549 [9]): 700 nM
Structure (SMILES): CCNCCCNCCCNCCCNC[C@H](C)CO
- Activity (A549 [11]): 65%
- Activity (A549 [12]): 65%

- IC50 (NCI-H157): 4100 nM
Structure (SMILES): c1ccc(C(CCNCCCNCCCNCCCNCCC(c2ccccc2)c2ccccc2)c2ccccc2)cc1
